No end group written: not given here.
Key:
[1] = test system: mouse embryonic stem cells; assay: Differentiation of mouse embryonic stem cells on IKVAV concentration gradient PEG hydrogels; type: cell-based; details: 3 days of differentiation
hiPSC derived NSC = hiPSC derived NSC in 3D matrix with coupled IKVAV; type: cell-based, human; details: peptide coupled within a 3D matrix, preliminary data

IKVAV (also: tethered in PEG hydrogel)
toxicity ([1]; high concentration of tethered peptide): toxicity evident | neurite extension ([1]; low concentration of tethered peptide): lack of neurite extension | effect on cellular survival, neurite extension and differentiation ([1]; tethered peptide concentration gradient in PEG hydrogels, β3 tubulin staining): concentration dependent effect | survival and neurite extension (hiPSC derived NSC): can support survival and neurite extension
